From patent US11530229B2, “Cyano cyclobutyl compounds for CBL-B inhibition and uses thereof” (Nurix Therapeutics, Inc., priority 2019, dated 2022)
pIC50: −log10 of the molar value.

Key:
Cbl-b [1] = target: T1, Cbl-b (Homo sapiens (Human), UniProt Q13191); experiment: Cbl-b displacement assay (Cbl-b inhibition assay), Biological Example 8; assay type: binding; details: 0.125 nM Cbl-b final concentration (Low), Table 4; read-out: Cbl-b IC50 (Low)
Experimental: (§1) Candidate compounds were evaluated for their ability to bind and inhibit Cbl-b, an E3 ubiquitin-protein ligase, as evidenced by their ability to displace a fluorophore-labeled probe bound to Cbl-b.
(§2) The ability of candidate compounds to displace a known inhibitor and thereby inhibit Cbl-b activity was measured by monitoring the interaction of Cbl-b with a fluorophore-labeled probe in the presence of the candidate compound. A truncated variant of Cbl-b (UniProt number Q13191) containing residues 36-427 and an Avitag at its N-terminus was co-expressed with BirA biotin ligase and purified using a standard protocol (see Dou et al., Nature Structural and Molecular Biology 8: 982-987, 2013; Avidity LLC).
Fluorescently-labeled inhibitor probe was synthesized and tagged with BODIPY FL. Cbl-b displacement assays were performed in a 384-well plate at room temperature in a […] by pre-incubating 0.5 nM Cbl-b or 0.125 nM Cbl-b (final concentration, indicated as “High” and “Low,” respectively) in an assay buffer containing 20 mM HEPES pH 7.5, 150 mM NaCl, 0.01% Triton X-100, 0.01% BSA, and 0.5 mM TCEP in the presence of a candidate compound in 1% DMSO (final concentration) for 1 hour. After incubation in the presence of the candidate compound, the plate was incubated for an additional one hour in the presence of an approximate EC40 binding saturation consisting of 150 nM fluorescently-labeled inhibitor probe and 2 nM Streptavidin-Terbium (Cisbio) (final concentrations). Following the one hour incubation, the plates were read for TR-FRET signal at […] using an Envision plate reader (Perkin Elmer).
(§3) The resulting data for the Cbl-b activity assays were analyzed using standard methods to determine the IC50 values for the tested compounds.

Cbl-b [2] = target: T1, Cbl-b; experiment: Cbl-b displacement assay (Cbl-b inhibition assay), Biological Example 1; assay type: binding
Procedure, shortened: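 Probe displacement read as TR-FRET (520/620 nm) after 1 h with 2 nM streptavidin-terbium and 150 nM BODIPY FL-labelled inhibitor probe, about EC40. Before that, compound in 1% DMSO sat 1 h at room temperature with N-Avitag biotinylated Cbl-b 36–427, 0.5 nM (High) or 0.125 nM (Low), in pH 7.5 HEPES buffer.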

[3] = test system: primary human total T-cells; experiment: T-cell activation, IL-2 secretion, Biological Example 13; assay type: cell-based; details: 48 hours, fold change over baseline, Table 8; for IL-2 secretion CD3/CD28 0.3 μM / IL-2 secretion CD3/CD28 1 μM: anti-CD3 and anti-CD28 co-stimulation; for IL-2 secretion CD3/CD28 0.3 μM: 0.3 μM inhibitor; for IL-2 secretion CD3/CD28 1 μM / IL-2 secretion CD3 1 μM: 1 μM inhibitor; for IL-2 secretion CD3 1 μM / IL-2 secretion CD3 3 μM: anti-CD3 stimulation alone; for IL-2 secretion CD3 3 μM: 3 μM inhibitor
Cbl-b [4] = target: T1, Cbl-b; experiment: Cbl-b displacement assay (Cbl-b inhibition assay), Biological Example 12; assay type: binding; details: 0.125 nM Cbl-b final concentration (Low), Table 7; read-out: Cbl-b IC50 (Low)
Experimental: as §1, §2
Fluorescently-labeled inhibitor probe was synthesized and tagged with BODIPY FL. Cbl-b displacement assays were performed in a 384-well plate at room temperature in a […] by pre-incubating 0.5 nM Cbl-b or 0.125 nM Cbl-b (final concentration, indicated as “High” and “Low,” respectively) in an assay buffer containing 20 mM HEPES pH 7.5, 150 mM NaCl, 0.01% Triton X-100, 0.01% BSA and 0.5 mM TCEP in the presence of a candidate compound in 1% DMSO (final concentration) for one hour. After incubation in the presence of the candidate compound, the plate was incubated for an additional one hour in the presence of an approximate EC40 binding saturation consisting of 150 nM fluorescently-labeled inhibitor probe and 2 nM Streptavidin-Terbium (Cisbio) (final concentrations). Following the one hour incubation, the plates were read for TR-FRET signal at […] using an Envision plate reader (Perkin Elmer).
as §3

[5] = test system: primary human total T-cells; experiment: T-cell activation, IL-2 secretion, Biological Example 9; assay type: cell-based; details: 48 hours, fold change over baseline, Table 5; for IL-2 secretion CD3/CD28 0.3 μM / IL-2 secretion CD3/CD28 1 μM: anti-CD3 and anti-CD28 co-stimulation; for IL-2 secretion CD3/CD28 0.3 μM: 0.3 μM inhibitor; for IL-2 secretion CD3/CD28 1 μM / IL-2 secretion CD3 1 μM: 1 μM inhibitor; for IL-2 secretion CD3 1 μM / IL-2 secretion CD3 3 μM: anti-CD3 stimulation alone; for IL-2 secretion CD3 3 μM: 3 μM inhibitor
[6] = test system: primary human total T-cells; experiment: T-cell activation, CD25 surface staining, Biological Example 2; assay type: cell-based; details: 48 hours, fold change over baseline; for fold induction at 0.3 µM: 0.3 μM inhibitor; for fold induction at 1 µM: 1 μM inhibitor; for fold induction at 3 µM: 3 μM inhibitor
[7] = test system: primary human total T-cells; experiment: T-cell activation, IL-2 secretion, Biological Example 2; assay type: cell-based; details: 48 hours, fold change over baseline; for fold induction at 0.3 µM: 0.3 μM inhibitor; for fold induction at 1 µM: 1 μM inhibitor; for fold induction at 3 µM: 3 μM inhibitor
[8] = 0.125 nM Cbl-b final concentration (Low), read-out: Cbl-b activity IC50 (Low)
[9] = read-out: IC50 values in the Cbl-b inhibition assay of Biological Example 1
[10] = anti-CD3 and anti-CD28 co-stimulation
[11] = anti-CD3 and anti-CD28 co-stimulation, read-out: CD25 staining CD3/CD28 1 μM
[12] = anti-CD3 stimulation alone, read-out: CD25 staining CD3 1 μM
[13] = anti-CD3 and anti-CD28 co-stimulation, read-out: IL-2 secretion CD3/CD28 1 μM
[14] = anti-CD3 stimulation alone, read-out: IL-2 secretion CD3 1 μM

T1 sequence (Q13191 36-427): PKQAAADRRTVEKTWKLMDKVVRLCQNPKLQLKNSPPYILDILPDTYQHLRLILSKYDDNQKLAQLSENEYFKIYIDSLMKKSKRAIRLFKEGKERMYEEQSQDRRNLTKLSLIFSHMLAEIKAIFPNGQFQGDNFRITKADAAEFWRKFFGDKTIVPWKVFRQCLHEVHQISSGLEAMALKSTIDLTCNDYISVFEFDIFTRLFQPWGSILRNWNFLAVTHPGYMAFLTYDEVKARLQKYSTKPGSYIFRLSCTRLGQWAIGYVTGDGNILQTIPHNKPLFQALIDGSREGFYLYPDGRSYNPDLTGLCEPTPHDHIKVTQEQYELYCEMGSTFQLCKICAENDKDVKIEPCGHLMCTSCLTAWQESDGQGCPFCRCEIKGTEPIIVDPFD

Row | Compound | pIC50 (Cbl-b [1]) | pIC50 (Cbl-b [2]; [8]) | IL-2 secretion CD3/CD28 0.3 μM [3] | IL-2 secretion CD3/CD28 1 μM [3] | IL-2 secretion CD3 1 μM [3] | IL-2 secretion CD3 3 μM [3] | pIC50 (Cbl-b [4]) | IL-2 secretion CD3/CD28 0.3 μM [5] | IL-2 secretion CD3/CD28 1 μM [5] | IL-2 secretion CD3 1 μM [5] | IL-2 secretion CD3 3 μM [5] | fold induction at 0.3 µM [6, 10] | fold induction at 1 µM [6, 11] | fold induction at 1 µM [6, 12] | fold induction at 3 µM ([6]; anti-CD3 stimulation alone) | fold induction at 0.3 µM [7, 10] | fold induction at 1 µM [7, 13] | fold induction at 1 µM [7, 14] | fold induction at 3 µM ([7]; anti-CD3 stimulation alone) | other results
1 | Cn1cnnc1C[C@]1(c2cccc(N3Cc4c(cc(CN5CCC6(CC6)C5)cc4C(F)(F)F)C3=O)c2)C[C@H](C#N)C1 [Compound 4, (1r,3r)-3-(3-(6-((5-azaspiro[2.4]heptan-5-yl)methyl)-1-oxo-4-(trifluoromethyl)isoindolin-2-yl)phenyl)-3-((4-methyl-4H-1,2,4-triazol-3-yl)methyl)cyclobutane-1-carbonitrile] | 8.30 to 9.00 | 8.70 to 9.00 | A (A indicates >15 fold) | A (A indicates >15 fold) | A (A indicates >0.66 fold) | A (A indicates >0.66 fold) | 8.30 to 9.00 | A (A indicates >15 fold) | A (A indicates >15 fold) | A (A indicates >0.66 fold) | A (A indicates >0.66 fold) | 1.24 to 1.39 | 1.24 to 1.39 | > 1.15 | > 1.15 | ≤ 15 | 15 to 20 | 0.4 to 0.85 | 0.4 to 0.85 | pIC50 (Cbl-b [2]; [9]): 8.70 to 9.00
2 | C[C@@H]1CN(Cc2cc3c(c(C(F)(F)F)c2)CN(c2cccc([C@]4(Cc5nncn5C)C[C@@H](C#N)C4)c2)C3=O)CCC1(F)F [Compound 11, (1R,3r)-3-(3-(6-(((R)-4,4-difluoro-3-methylpiperidin-1-yl)methyl)-1-oxo-4-(trifluoromethyl)isoindolin-2-yl)phenyl)-3-((4-methyl-4H-1,2,4-triazol-3-yl)methyl)cyclobutane-1-carbonitrile] | 8.30 to 9.00 | 8.70 to 9.00 | A (A indicates >15 fold) | A (A indicates >15 fold) | A (A indicates >0.66 fold) | A (A indicates >0.66 fold) | 8.30 to 9.00 | A (A indicates >15 fold) | A (A indicates >15 fold) | A (A indicates >0.66 fold) | A (A indicates >0.66 fold) | 1.24 to 1.39 | 1.24 to 1.39 | 1 to 1.15 | ≤ 1 | > 20 | > 20 | > 0.85 | > 0.85 | pIC50 (Cbl-b [2]; [9]): 8.70 to 9.00
3 | C[C@H]1CCCN(Cc2cc3c(c(C(F)(F)F)c2)CN(c2cccc([C@]4(Cc5nncn5C)C[C@@H](C#N)C4)c2)C3=O)C1 [Compound 19, (1R,3r)-3-((4-methyl-4H-1,2,4-triazol-3-yl)methyl)-3-(3-(6-(((S)-3-methylpiperidin-1-yl)methyl)-1-oxo-4-(trifluoromethyl)isoindolin-2-yl)phenyl)cyclobutane-1-carbonitrile] | > 9.00 | > 9.00 | A (A indicates >15 fold) | A (A indicates >15 fold) | A (A indicates >0.66 fold) | A (A indicates >0.66 fold) | > 9.00 | A (A indicates >15 fold) | A (A indicates >15 fold) | A (A indicates >0.66 fold) | A (A indicates >0.66 fold) | > 1.39 | > 1.39 | > 1.15 | > 1.15 | > 20 | > 20 | > 0.85 | > 0.85 | 
4 | Cn1cnnc1C[C@]1(c2cccc(NC(=O)c3cc(CN4CCC5(CC5)C4)cc(C4CC4)n3)c2)C[C@H](C#N)C1 [Compound 53, 4-((5-azaspiro[2.4]heptan-5-yl)methyl)-N-(3-((1r,3r)-3-cyano-1-((4-methyl-4H-1,2,4-triazol-3-yl)methyl)cyclobutyl)phenyl)-6-cyclopropylpicolinamide] |  |  |  |  |  |  |  |  |  |  |  | ≤ 1.24 | ≤ 1.24 | 1 to 1.15 | 1 to 1.15 | 15 to 20 | 15 to 20 | 0.4 to 0.85 | 0.4 to 0.85 | pIC50 (Cbl-b [2]; 0.5 nM Cbl-b final concentration (High), read-out: Cbl-b activity IC50 (High)): > 9.00
5 | C[C@@H]1C[C@H](C)CN(Cc2cc(C(=O)Nc3cccc([C@]4(Cc5nncn5C)C[C@@H](C#N)C4)c3)nc(C3CC3)c2)C1 [Compound 54] |  | > 9.00 |  |  |  |  |  |  |  |  |  | 1.24 to 1.39 | 1.24 to 1.39 | ≤ 1 | ≤ 1 | > 20 | > 20 | > 0.85 | > 0.85 | 
6 | C[C@H]1CCCN(Cc2cc(C(=O)Nc3cccc([C@]4(Cc5nncn5C)C[C@@H](C#N)C4)c3)nc(C3CC3)c2)C1 [Compound 55, N-(3-((1r,3S)-3-cyano-1-((4-methyl-4H-1,2,4-triazol-3-yl)methyl)cyclobutyl)phenyl)-6-cyclopropyl-4-(((S)-3-methylpiperidin-1-yl)methyl)picolinamide] |  | > 9.00 |  |  |  |  |  |  |  |  |  | 1.24 to 1.39 | 1.24 to 1.39 | ≤ 1 | ≤ 1 | > 20 | > 20 | > 0.85 | > 0.85 | 
7 | C[C@@H]1CN(Cc2cc(C(=O)Nc3cccc([C@]4(Cc5nncn5C)C[C@@H](C#N)C4)c3)nc(C3CC3)n2)CCC1(F)F [Compound 57, N-(3-((1r,3R)-3-cyano-1-((4-methyl-4H-1,2,4-triazol-3-yl)methyl)cyclobutyl)phenyl)-2-cyclopropyl-6-(((R)-4,4-difluoro-3-methylpiperidin-1-yl)methyl)pyrimidine-4-carboxamide] |  | > 9.00 |  |  |  |  |  |  |  |  |  | 1.24 to 1.39 | 1.24 to 1.39 | 1 to 1.15 | ≤ 1 | 15 to 20 | > 20 | 0.4 to 0.85 | > 0.85 | 
